Measured values: patent US5409933A, “Quinoline derivatives and processes for preparing the same” (priority 1993, dated 1995)
Counter-ions that a name gives are not always drawn. Like-named read-outs stand apart in the source and are kept apart here.

Tests used:
Test in all cases: In Vitro Anti-Bacterial Activity Test (MIC, agar dilution)
Assay type in all cases: cell-based
[1] = system: Streptococcus pyogenes 308A; details: Muller-Hinton agar, 37° C., 18 hours, read-out: MIC
How it was run: (§1)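 Bacterial suspensions of 10^7 C.F.U./ml are inoculated onto Muller-Hinton agar containing graded compound levels. After 18 hours at 37° C., the lowest level showing no growth is recorded as MIC.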

Escherichia coli TEM = details: Escherichia coli, 18 h, Muller-Hinton agar, 37° C.
How it was run: (§2)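 Read-out is visual growth inhibition on compound-containing Muller-Hinton agar, giving the MIC. Bacteria (10^7 C.F.U./ml) incubate 18 hours at 37° C.; ciprofloxacin is included as comparator drug.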

[2] = system: Pseudomonas aeruginosa 1592E; details: Muller-Hinton agar, 37° C., 18 hours, read-out: MIC
How it was run: as §1

Enterobacter cloacae P99 = details: Enterobacter cloacae, P99, 18 h
How it was run: as §2

[3] = system: Staphylococcus aureus 503; details: Staphylococcus aureus 503; Muller-Hinton agar, 37° C., 18 hours; read-out: MIC
How it was run: as §1

Escherichia coli DC0 = details: Muller-Hinton agar, 37° C., 18 hours, read-out: MIC
How it was run: as §1

Salmonella typhimurium = details: Salmonella enterica; Salmonella typhimurium; Muller-Hinton agar, 37° C., 18 hours; read-out: MIC
How it was run: as §1

[4] = system: Streptococcus pyogenes 77A
How it was run: as §1

Escherichia coli DC2 = system: Escherichia coli DC2
How it was run: as §1

[5] = system: Staphylococcus aureus SG511; details: Staphylococcus aureus SG511; Muller-Hinton agar, 37° C., 18 hours; read-out: MIC
How it was run: as §1

Escherichia coli 1507E = details: Muller-Hinton agar, 37° C.
How it was run: as §1

[6] = system: Pseudomonas aeruginosa 1771; details: Pseudomonas aeruginosa 1771; Muller-Hinton agar, 37° C., 18 hours; read-out: MIC
How it was run: as §1

[7] = system: Pseudomonas aeruginosa 9027; details: Muller-Hinton agar, 37° C., 18 hours, read-out: MIC
How it was run: as §1

[8] = system: Staphylococcus aureus 285; details: Staphylococcus aureus, 285, 18 h, Staphylococcus aureus 285; Muller-Hinton agar, 37° C., 18 hours; read-out: MIC
How it was run: as §1

[9] = system: Streptococcus faecium MD8b; details: Enterococcus faecium, Muller-Hinton agar, 37° C., 18 hours, read-out: MIC
How it was run: as §1

Escherichia coli 078 = system: Escherichia coli 078
How it was run: as §1

Klebsiella oxytoca 1082E = details: Klebsiella oxytoca 1082E; Muller-Hinton agar, 37° C., 18 hours; read-out: MIC
How it was run: as §1

[10] = system: Pseudomonas aeruginosa 1771M; details: Pseudomonas aeruginosa, 1771M, 18 h, Muller-Hinton agar, 37° C.
How it was run: as §1

[11] = system: Klebsiella aerogenes 1522E; details: Klebsiella aerogenes, 1522E, 18 h
How it was run: as §1

[12] = system: Enterobacter cloacae 1321E; details: Enterobacter cloacae 1321E; Muller-Hinton agar, 37° C., 18 hours; read-out: MIC
How it was run: as §1

[13] = Streptococcus pyogenes, 77A, 18 h
[14] = Escherichia coli 078, Muller-Hinton agar, 37° C., 18 hours, read-out: MIC
[15] = Klebsiella aerogenes 1522E, Muller-Hinton agar, 37° C., 18 hours, read-out: MIC
[16] = Streptococcus pyogenes 77A, Muller-Hinton agar, 37° C., 18 hours, read-out: MIC

Row | SMILES | MIC [1] [µg/mL] | MIC (Escherichia coli TEM) [µg/mL] | MIC [2] [µg/mL] | MIC (Enterobacter cloacae P99) [µg/mL] | MIC [3] [µg/mL] | MIC (Escherichia coli DC0) [µg/mL] | MIC (Salmonella typhimurium) [µg/mL] | MIC (Escherichia coli DC2; Escherichia coli, DC2, 18 h) [µg/mL] | MIC [5] [µg/mL] | MIC [6] [µg/mL] | MIC [7] [µg/mL] | MIC [8] [µg/mL] | MIC [9] [µg/mL] | MIC (Klebsiella oxytoca 1082E) [µg/mL] | MIC [10] [µg/mL] | MIC [11, 15] [µg/mL] | MIC [12] [µg/mL] | MIC [4, 16] [µg/mL] | MIC (Escherichia coli 1507E; Escherichia coli, 1507E, 18 h) [µg/mL] | MIC (Escherichia coli 078; Escherichia coli, 078, 18 h) [µg/mL] | also measured
1 | O=C(C[N+](=O)[O-])c1cn(C2CC2)c2c(F)c(N3CCNCC3)c(F)cc2c1=O [Example 6, 1-cyclopropyl-6,8-difluoro-7-(piperazin-1-yl)-3-(2-nitroacetyl)-1,4-dihydro-4-oxoquinoline hydrochloride] | 3.12 | < 0.002 | 0.195 | < 0.002 | 0.391 | 0.195 | < 0.002 | 0.098 | 0.098 | 0.195 | 0.391 | 0.195 | 0.781 | < 0.002 | 0.049 | 0.007 | < 0.002 | – | – | – | MIC [4, 13]: 0.781 µg/mL; MIC (Escherichia coli 1507E; 18 hours, read-out: MIC): < 0.002 µg/mL; MIC (Escherichia coli 078; [14]): < 0.002 µg/mL
2 | N#CC(C#N)C(=O)c1cn(C2CC2)c2c(Cl)c(N3CCC(N)C3)c(F)cc2c1=O (centres unmarked) [Example 45, 1-cyclopropyl-6-fluoro-8-chloro-7-(3-aminopyrrolidin-1-yl)-3-(2,2-dicyanoacetyl)-1,4-dihydro-4-oxoquinoline hydrochloride] | 25 | 0.195 | 3.12 | 0.195 | 1.56 | 1.56 | 0.098 | 0.781 | 0.781 | 3.12 | 6.25 | 1.56 | 6.25 | 0.049 | 0.781 | 0.391 | 0.098 | 25 | 0.195 | 0.049 | –
3 | N#CCC(=O)c1cn(C2CC2)c2c(Cl)c(N3CC4=C(CNC4)C3)c(F)cc2c1=O [Example 44, 1-cyclopropyl-6-fluoro-8-chloro-7-(3,7-diazabicyclo[3.3.0]oct-1,5-en-3-yl)-3-(2-cyanoacetyl)-1,4-dihydro-4-oxoquinoline hydrochloride] | 25 | 0.391 | 6.25 | 0.195 | 6.25 | 3.12 | 0.195 | 1.56 | 6.25 | 12.5 | 12.5 | 6.25 | 25 | 0.195 | 3.12 | – | 0.098 | 25 | 0.781 | 0.195 | MIC [11]: 0.391 µg/mL
4 | N#CCC(=O)c1cn(C2CC2)c2c(Cl)c(N3CCC(N)C3)c(F)cc2c1=O (centres unmarked) [Example 42, 1-cyclopropyl-6-fluoro-8-chloro-7-(3-aminopyrrolidin-1-yl)-3-(2-cyanoacetyl)-1,4-dihydro-4-oxoquinoline hydrochloride] | 25 | 0.781 | 12.5 | 0.781 | 3.12 | 12.5 | 1.56 | – | 6.25 | 6.25 | 2.5 | 3.12 | 12.5 | 0.098 | 6.25 | 1.56 | 0.098 | 12.5 | 0.195 | 0.098 | MIC (Escherichia coli DC2; Escherichia coli DC2, Muller-Hinton agar, 37° C., 18 hours, read-out: MIC): 3.12 µg/mL
5 | NC1CCN(c2c(F)cc3c(=O)c(C(=O)CC(=O)C(F)(F)F)cn(C4CC4)c3c2Cl)C1 (centres unmarked) [Example 38, 1-cyclopropyl-6-fluoro-8-chloro-7-(3-aminopyrrolidin-1-yl)-3-(2-trifluoroacetoacetyl)-1,4-dihydro-4-oxoquinoline hydrochloride] | 1.56 | 0.195 | 0.781 | 0.098 | 0.391 | 0.195 | 0.049 | 0.098 | 0.391 | 1.56 | 1.56 | 0.781 | 0.781 | 0.025 | 0.391 | 0.098 | 0.049 | – | 0.098 | 0.195 | MIC [4, 13]: 0.781 µg/mL
6 | CNC1CCN(c2c(F)cc3c(=O)c(C(=O)C[N+](=O)[O-])cn(C4CC4)c3c2OC)C1 (centres unmarked) [Example 66, 1-cyclopropyl-6-fluoro-8-methoxy-7-(3-methylaminopyrrolidin-1-yl)-3-(2-nitroacetyl)-1,4-dihydro-4-oxoquinoline hydrochloride] | 1.56 | 0.195 | 1.56 | 0.195 | 0.098 | 0.781 | 0.781 | 0.195 | 0.391 | 1.56 | 1.56 | 0.391 | 0.781 | 0.098 | 1.56 | 0.013 | 0.049 | – | 0.391 | 0.098 | MIC [4, 13]: 0.781 µg/mL
7 | CNCC1=CCN(c2c(F)cc3c(=O)c(C(=O)C[N+](=O)[O-])cn(C4CC4)c3c2F)C1 [Example 15, 1-cyclopropyl-6,8-difluoro-7-(3-methylaminomethyl-2,5-dihydropyrrol-1-yl)-3-(2-nitroacetyl)-1,4-dihydro-4-oxoquinoline hydrochloride] | 0.049 | 0.004 | 0.391 | 0.004 | < 0.002 | 0.098 | < 0.002 | 0.013 | < 0.002 | 0.391 | 0.781 | 0.004 | 0.025 | < 0.002 | 0.195 | 0.013 | < 0.002 | 0.025 | 0.007 | – | MIC (Escherichia coli 078; [14]): < 0.002 µg/mL
